In ChEMBL document CHEMBL3867453, “Total Synthesis of (±)-Isoperbergins and Correction of the Chemical Structure of Perbergin” (2016):
Values after ≈ are worked out from the molar mass of the structure shown.

Legend:
Type in all cases: functional
Rhodococcus fascians = test: Antibacterial activity against Rhodococcus fascians after 24 hrs by MTT based microdilution assay; conditions: Rhodococcoides fascians
[1] = tested on: Mycolicibacterium smegmatis; test: Antibacterial activity against Mycobacterium smegmatis after 48 hrs by MTT based microdilution assay
Escherichia coli = test: Antibacterial activity against Escherichia coli after 24 hrs by MTT based microdilution assay
Pseudomonas aeruginosa = test: Antibacterial activity against Pseudomonas aeruginosa after 24 hrs by MTT based microdilution assay
Staphylococcus aureus = test: Antibacterial activity against Staphylococcus aureus after 24 hrs by MTT based microdilution assay

Row | Compound | MIC (Rhodococcus fascians) [µg/mL] | MIC [1] [µg/mL] | MIC (Escherichia coli) [µg/mL] | MIC (Pseudomonas aeruginosa) [µg/mL] | MIC (Staphylococcus aureus) [µg/mL]
1 | COc1ccc(C2COc3cc(O)cc(O)c3C2=O)c(O)c1O (racemic) | > 50 | > 50 | > 50 | > 50 | > 50
2 | CN[C@@H]1[C@@H](O[C@H]2O[C@H](CO)[C@@H](N)[C@H](O)[C@H]2O)O[C@H]2C[C@@H](N)[C@@H](O[C@H]3[C@H](O)[C@@H](O)[C@H](N)C[C@@H]3N)O[C@@H]2[C@@H]1O | 50 (≈ 92.7 µM) | 2.5 (≈ 4.63 µM) | > 50 | 50 (≈ 92.7 µM) | 30 (≈ 55.6 µM)

The next compounds have a lower MIC (Rhodococcus fascians) than those just listed; values first:

Row | MIC (Rhodococcus fascians) [µg/mL] | MIC [1] [µg/mL] | MIC (Escherichia coli) [µg/mL] | MIC (Pseudomonas aeruginosa) [µg/mL] | MIC (Staphylococcus aureus) [µg/mL] | Compound
3 | 20 (≈ 57.2 µM) | > 50 | < 5 | < 5 | > 50 | CC1(C)S[C@@H]2[C@H](NC(=O)[C@H](N)c3ccccc3)C(=O)N2[C@H]1C(=O)O [AMPICILLIN]
4 | 12.5 (≈ 27.5 µM) | 5 (≈ 11 µM) | > 50 | > 50 | 5 (≈ 11 µM) | COc1ccc(C2COc3c(C/C=C(/C)CCC=C(C)C)c(O)cc(O)c3C2=O)c(O)c1O (racemic)
5 | 12.5 (≈ 27.5 µM) | 5 (≈ 11 µM) | > 50 | > 50 | 5 (≈ 11 µM) | COc1ccc(C2COc3c(C/C=C(\C)CCC=C(C)C)c(O)cc(O)c3C2=O)c(O)c1O (racemic)
